Test results taken from patent US20210346459A1, “Application of Dalargin for the prevention of VRIs and prevention of the development of complications during VRIs” (priority 2020, published 2021).
Where two headings read alike, the source gives them in different places. Marks after values point to notes of the source that are not given here. Square brackets hold non-standard residues; d marks the D form. Peptide text beside a SMILES is read from it.

Tested on: influenza virus A/Puerto Rico/8/34 (H1N1)
Format: in vivo, Balb/c mice
[1] = Group 4: inhalation of 1% solution 14 min twice a day, 0.36 mg/kg
[2] = Group 4: inhalation of 1% solution 14 min twice a day, 0.36 mg/kg, 30 animals
[3] = Group 5: inhalation of 3% solution 45 min twice a day, 1.74 mg/kg
[4] = Group 5: inhalation of 3% solution 45 min twice a day, 1.74 mg/kg, 30 animals
[5] = Group 6: inhalation of 5% solution 55 min twice a day, 3.54 mg/kg
[6] = Group 6: inhalation of 5% solution 55 min twice a day, 3.54 mg/kg, 30 animals
[7] = Group 8: inhalation of 3% solution 45 min twice a day, prophylactic only
[8] = Group 8: inhalation of 3% solution 45 min twice a day, prophylactic only (days 3, 2, 1 and 1 hour before challenge), 30 animals
[9] = Group 9: nasally + pharyngeal spray 0.5 mg/kg, prophylactic only
[10] = Group 9: nasally + pharyngeal spray 0.5 mg/kg, prophylactic only, 30 animals

CC(C)C[C@H](NC(=O)[C@H](Cc1ccccc1)NC(=O)CNC(=O)[C@@H](C)NC(=O)[C@@H](N)Cc1ccc(O)cc1)C(=O)N[C@@H](CCCNC(=N)N)C(=O)O [Dalargin, tyrosyl-D-alanyl-glycyl-phenylalanyl-leucyl-arginine diacetate] (H-Y[dA]GFLR-OH)
Protective effect on lung tissue and lung function compared with comparators (Dalargin inhalation): superior to that of Tamiflu and Kagocel | Mortality, % [1]: 10.00% | Protective index, % [1]: 88.46% | Mortality by day 9 [2]: 2 | Mortality by day 11 [2]: 1 | Residue [2]: 27* | Mortality, % [3]: 6.67% | Protective index, % [3]: 92.30% | Mortality by day 8 [4]: 1 | Mortality by day 10 [4]: 1 | Residue [4]: 28* | Mortality, % [5]: 6.67% | Protective index, % [5]: 92.30% | Mortality by day 7 [6]: 1 | Mortality by day 10 [6]: 1 | Residue [6]: 28* | Mortality, % [7]: 40.00% | Protective index, % [7]: 53.85% | Mortality by day 5 [8]: 1 | Mortality by day 6 [8]: 3 | Mortality by day 7 [8]: 2 | Mortality by day 8 [8]: 3 | Mortality by day 9 [8]: 3 | Residue (Group 8: inhalation of 3% solution 45 min twice a day, prophylactic only, 30 animals): 18 | Mortality, % [9]: 50.00% | Protective index, % [9]: 42.31% | Mortality by day 6 [10]: 4 | Mortality by day 7 [10]: 4 | Mortality by day 8 [10]: 4 | Mortality by day 9 [10]: 2 | Mortality by day 10 [10]: 1 | Residue [10]: 15 | Histological features of lung tissue, day 3 after challenge (oedema, neutrophilic infiltration, collapsed alveolae relative to control): far less pronounced | Efficacy attributed exclusively to the prophylactic protective effect (preventive administration, without the therapeutic component): 50% | Histological features of lung tissue, day 12 (surviving animals): One half of the animals receiving Dalargin exhibited no signs of pathology
